Assay results: patent US9108941B2, “Griseofulvin analogues for the treatment of cancer by inhibition of centrosomal clustering” (DEUTSCHES KREBSFORSCHUNGSZENTRUM STIFTUNG DES OEFFENTLICHEN …, priority 2008, dated 2015)

What was measured:
[1] = system: GFP-α-tubulin expressing SCC114 cells; assay: Treatment of GFP-α-tubulin expressing SCC114 cells with griseofulvin analogues (inhibition of centrosomal clustering); type: cell-based; details: Homo sapiens, Table 1, analogues diluted 100 micromolar to 10 nanomolar
Procedure: Cell Culture. All cell lines were cultured in Dulbecco's modified Eagle's Medium (DMEM; PAA Laboratories, Pasching, Austria) supplemented with 10% FCS (PAA). SCC114 cells stably expressing GFP-α-tubulin were generated by transfection (Eugene 6, Roche Diagnostics, Mannheim, Germany) of the transgene in pEGFP-C1 (Clontech, Heidelberg, Germany) and maintained under selective pressure by addition of geniticin (Invitrogen, Karlsruhe, Germany) Primary normal human epidermal keratinocytes (NHEK; PromoCell, Heidelberg, Germany) were cultured in Keratinocyte Growth Medium 2 (PromoCell). When indicated a griseofulvin analogue was added to the culture medium. The griseofulvin analogue was dissolved in DMSO (Sigma). In all experiments, the final DMSO concentration was 0.1%.
Treatment of GFP-α-tubulin expressing SCC114 cells with griseofulvin analogues. Analogues were dissolved in DMSO/water and diluted to span a concentration range of 100 micromolar to 10 nanomolar.

melting point [°C] | IC50 [1] [µM] | SMILES
– | 4.7 | COc1cc(OC)c2c(c1Cl)O[C@]1(C2=O)C(OCc2ccc(CBr)cc2)=CC(=O)C[C@H]1C [Compound 7, (2S,6′R)-(7-Chloro-4,6-dimethoxy-benzofuran-3-one)-2-spiro-1′-(6′-methyl-2′-(4-bromo-methylbenzyloxy)-cyclohex-2′-ene-4′-one)]
– | 9.1 | COc1cc(OC)c2c(c1Cl)O[C@]1(C2=O)C(OCc2ncc(C)c([N+](=O)[O-])c2C)=CC(=O)C[C@H]1C [Compound 8, (2S,6′R)-(7-Chloro-4,6-dimethoxy-benzofuran-3-one)-2-spiro-1′-(6′-methyl-2′-((3,5-dimethyl-4-nitro-pyrid-2-yl)methyloxy)-cyclohex-2′-ene-4′-one)]
– | 3.2 | COc1cc(OC)c2c(c1Cl)O[C@]1(C2=O)C(OCc2ccc(-c3ccccc3)cc2)=CC(=O)C[C@H]1C [Compound 9, (2S,6′R)-(7-Chloro-4,6-dimethoxy-benzofuran-3-one)-2-spiro-1′-(2′-(4-biphenylmethoxy)-6′-methyl-cyclohex-2′-ene-4′-one)]
– | 1.5 | COc1cc(OC)c2c(c1Cl)O[C@]1(C2=O)C(Oc2ccccc2)=CC(=O)C[C@H]1C [Compound 10, (2S,6′R)-(7-Chloro-4,6-dimethoxy-benzofuran-3-one)-2-spiro-1′-(6′-methyl-2′-phenoxy-cyclohex-2′-ene-4′-one)]
98 to 100 | 2.1 | CCCOC1=C(I)C(=O)C[C@@H](C)[C@]12Oc1c(Cl)c(OC)cc(OC)c1C2=O [Compound 11, (2S,6′R)-(7-Chloro-4,6-dimethoxy-benzofuran-3-one)-2-spiro-1′-(3′-iodo-6′-methyl-2′-propoxy-cyclohex-2′-ene-4′-one)]

More lines, now with the values behind:

SMILES | melting point [°C] | IC50 [1] [µM]
COc1cc(OC)c2c(c1Cl)O[C@]1(C2=O)C(OCc2ccc(Cl)cc2)=CC(=O)C[C@H]1C [Compound 1, (2S,6′R)-(7-Chloro-4,6-dimethoxy-benzofuran-3-one)-2-spiro-1′-(2′-(4-chlorobenzyloxy)-6′-methyl-cyclohex-2′-ene-4′-one)] | 173 to 175 | 3.4
COc1cc(OC)c2c(c1Cl)O[C@]1(C2=O)C(OCc2ccc(I)cc2)=CC(=O)C[C@H]1C [Compound 2, (2S,6′R)-(7-Chloro-4,6-dimethoxy-benzofuran-3-one)-2-spiro-1′-(2′-(4-iodobenzyloxy)-6′-methyl-cyclohex-2′-ene-4′-one)] | 166 to 168 | 3.3
COc1cc(OC)c2c(c1Cl)O[C@]1(C2=O)C(OCc2cccc(I)c2)=CC(=O)C[C@H]1C [Compound 3, (2S,6′R)-(7-Chloro-4,6-dimethoxy-benzofuran-3-one)-2-spiro-1′-(2′-(3-iodobenzyloxy)-6′-methyl-cyclohex-2′-ene-4′-one)] | 171 to 174 | –
COc1cc(OC)c2c(c1Cl)O[C@]1(C2=O)C(OCc2ccccc2I)=CC(=O)C[C@H]1C [Compound 4, (2S,6′R)-(7-Chloro-4,6-dimethoxy-benzofuran-3-one)-2-spiro-1′-(2′-(2-iodobenzyloxy)-6′-methyl-cyclohex-2′-ene-4′-one)] | 167 to 169 | 5.8
COc1cc(OC)c2c(c1Cl)O[C@]1(C2=O)C(OCc2ccc(C)cc2)=CC(=O)C[C@H]1C [Compound 5, (2S,6′R)-(7-Chloro-4,6-dimethoxy-benzofuran-3-one)-2-spiro-1′-(6′-methyl-2′-(4-methylbenzyloxy)-cyclohex-2′-ene-4′-one)] | 176 to 178 | 0.9
COc1cc(OC)c2c(c1Cl)O[C@]1(C2=O)C(OCc2ccc(CO)cc2)=CC(=O)C[C@H]1C [Compound 6, (2S,6′R)-(7-Chloro-4,6-dimethoxy-benzofuran-3-one)-2-spiro-1′-(6′-methyl-2′-(4-hydroxymethylbenzyloxy)-cyclohex-2′-ene-4′-one)] | – | 1.2
